Legend:
yeast = settings: fermentation mixture; cited from earlier work
[1] = test system: yeast (Saccharomyces cerevisiae) fermentations contaminated by lactic acid bacteria (L. plantarum); experiment: Corn mash fermentation lab test: ethanol and lactic acid at the end of fermentation; type: cell-based; settings: 64 hours, nisin alone 5 ppm, Virginiamycin 0.5 ppm
Description: Evaluations were conducted at the National Corn-to-Ethanol Research Center, utilizing hops acid extracts and nisin. The samples tested and their concentrations can be found in FIG. 1 and Tables 2 and 4. The tests were conducted to evaluate the effects of binary antimicrobials on ethanol production in corn mash produced under conditions that are similar to those used in the fuel ethanol industry. Two specific effects were investigated: (1) the ability of antimicrobials to affect ethanol yield and sugar conversion in fermentations that are contaminated by lactic acid bacteria, and (2) the ability of antimicrobials to control bacterial infections compared to control bacteria-free fermentations. Three 160-gram slurries of corn flour, water and enzyme (30% w/w dry solids) were made for each treatment and control (inoculated and uninoculated). The slurries were incubated for 90 minutes at 83° C., cooled to 40° C., and then inoculated with L. plantarum. Next, the slurries were dosed with antimicrobial. […] The mass of each flask was recorded after all additions were made, then sanitized fermentation traps were inserted into each flask and they were weighed again. […] Fermentation progress was monitored by weighing the fermentation flasks periodically during the 3-day incubation (at 0, 17.5, 22.5, 42.5, 48, and 64 hrs after inoculation with yeast). The concentrations of substrates (glucose, DP2, DP3, and DP4+, where “DPx” represent glucose oligomers with “x” subunits) and products (ethanol, glycerol, lactic acid, and acetic acid) were measured by HPLC at the end of fermentation. Samples were prepared for HPLC by centrifugation to remove large solids, followed by filtration through 0.45-μm syringe filters, and acidification to pH of approximately 2 by addition of sulfuric acid to a final concentration of 0.01 N. The final pH, concentrations of total dry solids and dissolved dry solids, and the density of the beer filtrate was measured were measured after incubation for 64 hours. […]

L. plantarum = experiment: Corn mash fermentation lab test: bacterial colony counts after antimicrobial addition; type: cell-based; settings: nisin alone 5 ppm, virginiamycin 0.5 ppm
Description: Evaluations were conducted at the National Corn-to-Ethanol Research Center, utilizing hops acid extracts and nisin. The samples tested and their concentrations can be found in FIG. 1 and Tables 2 and 4. The tests were conducted to evaluate the effects of binary antimicrobials on ethanol production in corn mash produced under conditions that are similar to those used in the fuel ethanol industry. Two specific effects were investigated: (1) the ability of antimicrobials to affect ethanol yield and sugar conversion in fermentations that are contaminated by lactic acid bacteria, and (2) the ability of antimicrobials to control bacterial infections compared to control bacteria-free fermentations. Three 160-gram slurries of corn flour, water and enzyme (30% w/w dry solids) were made for each treatment and control (inoculated and uninoculated). The slurries were incubated for 90 minutes at 83° C., cooled to 40° C., and then inoculated with L. plantarum. Next, the slurries were dosed with antimicrobial. The facility dosed hops acid extracts and nisin to 250-mL Erlenmeyer flasks and samples were collected at 15, 30 and 60 minutes post antimicrobial addition. After the 3 time-point samples were collected, the pH of the mash was adjusted to <5.2 by addition of 300 μl of 5-N sulfuric acid. All enzymes, nutrients, and other amendments added to the fermentation flasks were freshly prepared before use. Urea was added as a sterile 0.2-g/ml solution to a final concentration of 500 ppm (w/w) based on the nitrogen content of the urea (w/w, based on the total mass of mash). The glucoamylase enzyme (Spirizyme Excel, Novozymes) was prepared as a 0.25-g/ml solution and added at a dose of 0.066% (w/w, based on the wet weight of corn). Sterile water was added to equalize the total solids content of each treatment. […] The mass of each flask was recorded after all additions were made, then sanitized fermentation traps were inserted into each flask and they were weighed again. […] Fermentation progress was monitored by weighing the fermentation flasks periodically during the 3-day incubation (at 0, 17.5, 22.5, 42.5, 48, and 64 hrs after inoculation with yeast). The concentrations of substrates (glucose, DP2, DP3, and DP4+, where “DPx” represent glucose oligomers with “x” subunits) and products (ethanol, glycerol, lactic acid, and acetic acid) were measured by HPLC at the end of fermentation. Samples were prepared for HPLC by centrifugation to remove large solids, followed by filtration through 0.45-μm syringe filters, and acidification to pH of approximately 2 by addition of sulfuric acid to a final concentration of 0.01 N. The final pH, concentrations of total dry solids and dissolved dry solids, and the density of the beer filtrate was measured were measured after incubation for 64 hours. […]

Weisella confusa = settings: cited from earlier work

Virginiamycin
concentration that will suppress production of ethanol (yeast): over 2 mg/L
Average Ethanol ([1]; end of fermentation): 11.86 %, w/v
Average Final Lactic Acid Concentration ([1]; end of fermentation): 0.38 %, w/w
Average Final Ethanol Yield ([1]; grams ethanol per grams of dry corn, average of three flasks): 0.312 g/g
Colony counts after antimicrobial addition (L. plantarum; time point 0.25 (15 minutes post addition)): 1.00E+06
Colony counts after antimicrobial addition (L. plantarum; time point 0.5 (30 minutes post addition)): 1.35E+06
Colony counts after antimicrobial addition (L. plantarum; time point 1 (60 minutes post addition)): 1.95E+06
Colony counts at the end of fermentation (L. plantarum; time point 64 (64 hours)): 6.67E+04
concentration required to inhibit growth of Weisella confusa (Weisella confusa): over 25 mg/L

Source: patent publication US20160081354A1, “METHOD FOR TREATMENT OF MICROORGANISMS DURING PROPAGATION, CONDITIONING AND FERMENTATION USING HOPS ACID EXTRACTS AND NISIN” (Solenis Technologies, L.P., priority 2014, published 2016)
